In the supplement of paper PMC11061612:

Key:
Assay in all cases: combination Emax (second highest fraction inhibited in the dose matrix, 72 h); higher = more inhibition; extreme values may be limits of the assay
[1] = system: NCI-H929 (Plasma Cell Myeloma)
Summary of the method: (§1)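 Cell lines in DMEM/F12 or RPMI with 10% FBS were plated in 1536-well plates, held 24 hours at 37°C, 5% CO2, then given two-drug dose matrices for 72 hours (DMSO typically 0.2%). Viability was read by CellTiter-Glo 2.0 luminescence and scaled as inhibition from 0 (vehicle wells) to 1 (blank wells). Combination Emax is the second-highest inhibition in the matrix; Bliss excess is observed combination effect minus expected EA + EB − EA·EB, EA and EB being single-agent effects.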

[2] = system: M059J (Glioblastoma)
Summary of the method: as §1

[3] = system: G-361 (Melanoma)
Summary of the method: as §1

[4] = system: NCI-H661 (Non-Small Cell Lung Carcinoma)
Summary of the method: as §1

[5] = system: NCI-H526 (Small Cell Lung Carcinoma)
Summary of the method: as §1

[6] = system: DMS-114 (Small Cell Lung Carcinoma)
Summary of the method: as §1

[7] = system: NCI-H3122 (Lung Adenocarcinoma)
Summary of the method: as §1

[8] = system: ST486 (Burkitt's Lymphoma)
Summary of the method: as §1

[9] = system: MN-60 (B-Lymphoblastic Leukemia)
Summary of the method: as §1

[10] = system: CW-2 (Colorectal Carcinoma)
Summary of the method: as §1

[11] = system: COR-L279 (Small Cell Lung Carcinoma)
Summary of the method: as §1

[12] = system: NCI-H2731 (Mesothelioma)
Summary of the method: as §1

[13] = system: NCCIT (Other Solid Carcinomas)
Summary of the method: as §1

[14] = system: SU-DHL-5 (B-Cell Non-Hodgkin's Lymphoma)
Summary of the method: as §1

[15] = system: SK-GT-2 (Gastric Carcinoma)
Summary of the method: as §1

[16] = system: MOG-G-CCM (Low Grade Glioma)
Summary of the method: as §1

[17] = system: PC-3 (Prostate Carcinoma)
Summary of the method: as §1

[18] = system: KMS-12-BM (Plasma Cell Myeloma)
Summary of the method: as §1

[19] = system: MOLM-13 (Acute Myeloid Leukemia)
Summary of the method: as §1

[20] = system: DAN-G (Pancreatic Carcinoma)
Summary of the method: as §1

Compound | combination Emax [1] | combination Emax [2] | combination Emax [3] | combination Emax [4] | combination Emax [5] | combination Emax [6] | combination Emax [7] | combination Emax [8] | combination Emax [9] | combination Emax [10] | combination Emax [11] | combination Emax [12] | combination Emax [13] | combination Emax [14] | combination Emax [15] | combination Emax [16] | combination Emax [17] | combination Emax [18] | combination Emax [19] | combination Emax [20]
Cc1c2c(nn1C)CSCc1cc(n(C)n1)CSc1cc(c3ccccc3c1)OCCCc1c(C(=O)O)n(C)c3c-2c(Cl)ccc13 [AZD5991] + Cc1cc2ncnn2cc1Nc1ncc2c(n1)n(C1CCOCC1)c(=O)n2C [AZD7648] (first compound max 1 µM, 7x7, partner max 10 µM) | 1 | 0.468 | 0.956 | 0.419 | 0.323 | 0.692 | 0.442 | 0.841 | 0.15 | 0.223 | 0.468 | 0.576 | 0.619 | 1 | 0.192 | 0.302 | 0.305 | 1 | 1 | 0.483
C[C@@H]1COCCN1c1cc(C2([S@](C)(=N)=O)CC2)nc(-c2ccnc3[nH]ccc23)n1 [AZD6738] + O=C(c1cc(Cc2n[nH]c(=O)c3ccccc23)ccc1F)N1CCN(C(=O)C2CC2)CC1 [Olaparib] (first compound max 10 µM, 7x7, partner max 10 µM) | 0.668 | 0.684 | 0.456 | 0.54 | 0.752 | 0.528 | 0.726 | 0.909 | 0.528 | 0.473 | 0.927 | 0.304 | 0.609 | 1 | 0.355 | 0.42 | 0.514 | 0.945 | 1 | 0.643
Cc1cc2ncnn2cc1Nc1ncc2c(n1)n(C1CCOCC1)c(=O)n2C [AZD7648] + C=CCn1c(=O)c2cnc(Nc3ccc(N4CCN(C)CC4)cc3)nc2n1-c1cccc(C(C)(C)O)n1 [AZD1775] (first compound max 10 µM, partner max 1 µM) | 0.827 | 0.522 | 0.545 | 0.649 | 0.721 | 0.385 | 0.744 | 0.98 | 0.124 | 0.391 | 0.484 | 0.416 | 0.853 | 1 | 0.74 | 0.48 | 0.263 | 0.937 | 1 | 0.631
Cc1cc2ncnn2cc1Nc1ncc2c(n1)n(C1CCOCC1)c(=O)n2C [AZD7648] + CCN(CCO)CCCOc1ccc2c(Nc3cc(CC(=O)Nc4cccc(F)c4)[nH]n3)ncnc2c1 [AZD2811] (first compound max 10 µM, 7x7, partner max 1 µM) | 0.838 | 0.457 | 0.359 | 0.308 | 0.356 | 0.306 | 0.548 | 0.831 | 0.185 | 0.164 | 0.757 | 0.409 | 0.334 | 0.993 | 0.198 | 0.445 | 0.243 | 0.574 | 1 | 0.554
Cc1cc2ncnn2cc1Nc1ncc2c(n1)n(C1CCOCC1)c(=O)n2C [AZD7648] + CN(C)CCCOc1ccc(-c2ccc3ncc4c(c3c2)n(C2CCOCC2)c(=O)n4C)cn1 [AZD0156] (first compound max 10 µM, 7x7, partner max 1 µM) | 0.855 | 0.321 | 0.217 | 0.237 | 0.15 | 0.293 | 0.423 | 0.274 | 0.201 | 0.207 | 0.4 | 0.274 | 0.282 | 0.66 | 0.159 | 0.256 | 0.257 | 0.49 | 0.523 | 0.597
Cc1cc2ncnn2cc1Nc1ncc2c(n1)n(C1CCOCC1)c(=O)n2C [AZD7648] + C[C@@H]1COCCN1C2=NC(=NC(=C2)C3(CC3)[S@](=N)(=O)C)C4=C5C=CNC5=NC=C4 [AZD6738] (first compound max 10 µM, 7x7, partner max 10 µM) | 0.846 | 0.514 | 0.45 | 0.56 | 0.637 | 0.54 | 0.751 | 0.893 | 0.427 | 0.461 | 0.677 | 0.381 | 0.641 | 1 | 0.216 | 0.577 | 0.402 | 0.926 | 0.998 | 0.643
Cc1cc2ncnn2cc1Nc1ncc2c(n1)n(C1CCOCC1)c(=O)n2C [AZD7648] + O=C(c1cc(Cc2n[nH]c(=O)c3ccccc23)ccc1F)N1CCN(C(=O)C2CC2)CC1 [Olaparib] (first compound max 10 µM, 7x7, partner max 10 µM) | 0.761 | 0.431 | 0.117 | 0.215 | 0.473 | 0.236 | 0.281 | 0.424 | 0.175 | 0.0683 | 0.858 | 0.14 | 0.192 | 0.96 | 0.0892 | 0.236 | 0.265 | 0.429 | 0.43 | 0.531
